Laboratory results as given in patent US10952992B2, “Methods of treating intraocular pressure with activators of Tie-2” (Aerpio Pharmaceuticals, Inc., priority 2015, dated 2021).

What was measured:
[1] = Example 2 iris, retina, choroid and cornea tissue concentrations; assay type: in vivo, male New Zealand White rabbits
Procedure: (§1) To measure the concentration of Compound 1 in plasma and ocular tissues following topical ocular, subcutaneous, and intravitreal administration, New Zealand White rabbits were administered Compound 1, and plasma and ocular samples were collected at pre-determined time points. Compound 1 formulations were prepared fresh on each day of dosing.
(§2) Ocular tissue samples from both eyes of each animal were collected and weights were recorded. Plasma and ocular tissue sample concentrations of Compound 1 were determined by LC-MS/MS.
(§3) Animals were anesthetized for ocular (topical) and intravitreal dosing following the 12IA7 IACUC protocol. Each rabbit received a bolus dose of test formulation either via topical ocular administration 3 times daily on Days 1 and 2 (at 0, 6, and 12 hours), and once on Day 3 (at 0 hours) into both eyes; via intravitreal administration into both eyes once on Day 1 (at 0 hours); or via subcutaneous administration 2 times daily on Days 1 and 2 (at 0 and 8 hours) and once daily on Day 3 (at 0 hours). Doses were given within an approximately 1 hour window each day where applicable.
(§4) On Day 1, for intravitreal administration, or on Day 3, for topical ocular and subcutaneous administration, at the appropriate ocular tissue collection time points, animals were euthanized and both eyes were enucleated immediately. Following enucleation, each eye was rinsed with phosphate-buffered saline. Ocular tissue samples from both eyes of each animal were collected at predetermined time points and weights were recorded. All the samples were frozen immediately on dry ice, and stored at −60° C. to −80° C. pending bioanalysis.
(§5) An LC-MS/MS method was developed for the determination of Compound 1 in rabbit aqueous tissues (plasma, aqueous and vitreous humor) and solid ocular tissue samples. A pre-study standard curve was analyzed to determine the specificity, range, and lower limit of quantitation of the method. Plasma and tissue homogenate study samples were extracted and analyzed. All the samples were treated identically to the standards.
(§6) One eight-point standard curve was used in each analytical batch. To be accepted, each batch must have had at least five of eight standards with accuracy within ±20% of nominal, except at the lower limit of quantification (LLOQ), where ±25% was acceptable.

[2] = Example 2 aqueous humor concentrations; assay type: in vivo, male New Zealand White rabbits; conditions: intravitreal, topical ocular, subcutaneous
Procedure: as §1, §2, §3, §4, §5, §6

COC(=O)N[C@@H](Cc1ccccc1)C(=O)N[C@@H](Cc1ccc(NS(=O)(=O)O)cc1)c1csc(-c2cccs2)n1 [Compound 1]
iris, retina, choroid, cornea concentrations, intravitreal relative to subcutaneous or ocular topical ([1]; both test formulations): higher concentrations | persistence of concentrations in all ocular tissues ([1]; intravitreal administration of both test formulations): persisted at 72 hours | rank order of exposure in aqueous and vitreous humor by route [2]: intravitreal>>topical ocular>subcutaneous
